Measured values reported in US7479498B2, “Treatments for viral infections” (priority 1999, dated 2009).
Entries after “also recorded” stand apart in the source; their conditions may differ. Where a name gives a salt, the structure may show the parent alone. Read-outs that look alike come from different tables or passages of the source.

Assays:
[1] = cited from earlier work; for time to peak (maximum) plasma concentration: oral; for plasma half-life: after oral primaquine
P. vivax = conditions: in vivo; cited from earlier work
P. falciparum = conditions: cited from earlier work
[2] = cited from earlier work
GSH production = conditions: cited from earlier work
HIV = type: cell-based; conditions: standardized extract containing 1-10 μg/ml quercetin
Excerpt: The in vitro effect of calcium channel blockers on HIV infection both in HIV adapted cell lines (HUT/H9) as well as acutely infected peripheral blood lymphocytes were studied.

SMILES: CCN(CC)CCCC(C)Nc1ccnc2cc(Cl)ccc12 (centres unmarked) [Chloroquine]
- apparent volume of distribution ([1]; in vivo): about 13,000 L
- half-life (elimination / urinary excretion) ([1]; in vivo): 3 to 5 days
- plasma protein binding ([1]; in vivo): 50-65%
- time to peak (maximum) plasma concentration [1]: about 3 hours
- therapeutically effective plasma concentration (P. vivax): ~15 µg/L
- therapeutically effective plasma concentration (P. falciparum; sensitive P. falciparum): approximately 30 μg/L

SMILES: OC(c1cc(C(F)(F)F)nc2c(C(F)(F)F)cccc12)C1CCCCN1 (centres unmarked) [Mefloquine]
- half-life (elimination / urinary excretion) ([1]; in vivo): 13 to 33 days
- plasma level necessary for chemo-suppression (P. falciparum; in vivo): 200 to 300 ng/mL

SMILES: O=C1NC(=O)C(c2ccccc2)(c2ccccc2)N1 [Phenytoin sodium, monosodium salt of 5,5-diphenyl hydantoinate]
- solubility in water / aqueous mixtures [2]: readily soluble in water; also recorded: highly water-soluble

SMILES: COc1cc(NC(C)CCCN)c2ncccc2c1 (centres unmarked) [Primaquine]
- plasma half-life [1]: 3 to 8 h
- peak serum concentration ([1]; oral primaquine): 50 to 66 ng/mL
- time to peak (maximum) plasma concentration [1]: 1 to 2 h

SMILES: C=C[C@H]1C[N@@]2CC[C@H]1C[C@H]2[C@H](O)c1ccnc2ccc(OC)cc12 [Quinine]
- cerebrospinal fluid concentration as share of plasma level ([1]; in vivo): about 7%
- plasma concentration accompanied by adverse reactions of cinchonism ([1]; in vivo): over 7 μg/mL
- red blood cell level as share of plasma level ([1]; in vivo): about 20%
- share of drug metabolized in the liver ([1]; in vivo): Approximately 80%
- time to peak (maximum) plasma concentration [1]: 1 to 3 h
- plasma level ([1]; standard oral doses, normal or mild infection): about 7 μg/mL
- mean plasma concentration effective to eliminate asexual parasites (P. vivax): over 5 μg/mL

SMILES: COc1cc(NC(C)CCC(=O)O)c2ncccc2c1 (centres unmarked) [carboxyprimaquine]
- peak serum concentration ([1]; after 14 daily doses of primaquine): 432 to 1240 ng/mL
- plasma half-life [1]: 22 to 30 h
- plasma concentration relative to parent compound ([1]; in vivo): more than ten times greater

SMILES: O=C1NC(=O)C(c2ccccc2)(c2ccccc2)N1 [phenytoin, 5,5-diphenyl-2,4-imidazolidinedione]
- solubility in water / aqueous mixtures [2]: poorly soluble in aqueous mixtures; also recorded: water insoluble

SMILES: O=c1c(O)c(-c2ccc(O)c(O)c2)oc2cc(O)cc(O)c12 [quercetin, 2-(3,4-Dihydroxyphenyl)-3,5,7-trihydroxy-4H-1-benzopyran-4-one]
- absorption in the jejunum ([1]; in vivo): 66%
- increase of GSH production (GSH production): 50%
- reduction of HIV activity (HIV): 5-20%
